US10668039B2, “Methods for treatment of adenoid cystic carcinoma” (THE CHILDREN'S MEDICAL CENTER CORPORATION, priority 2016, dated 2020)
“Also recorded” adds a separate entry of the source.

Columns and labels:
ACCx9 = test: ACC xenotransplantation trial, ACCx9; type: in vivo, nude mice; conditions: oral 0.2 mL flat dose: ATRA 3 mg/mL, isotretinoin 30 mg/mL, fenretinide 40 mg/mL
Procedure: Xenograft experiments: To generate ACC xenografts, 1×10^6 viable ACC cells were injected into the flank of female nude (Foxn1nu) mice for in vivo drug testing of ACCx6, ACCx9, and ACCx11 lines. Once tumors were visible, the mice were randomized to receive vehicle control or drug until reaching a […] tumor volume of 1,000 mm3. The mice in each group were treated with an oral flat dose five times weekly (po qdx5) for four cycles (two days off between cycles). The exact dosing was determined based on an initial MTD tolerability study and published literature reports. Five mice per group were treated for ACCx6 and ACCx9, and four mice per group were treated for ACCx11 (five mice in the control ACCx11 group), and the tumor volumes were quantified. Mice were treated with a flat dose of 0.2 mL orally of: 30 mg/mL isotretinoin; 40 mg/mL fenretinide; 4 mg/mL ATRA for ACCx6 and ACCx11 or 3 mg/mL ATRA for ACCx9. Mouse procedures used in this study were approved by the IACUC at South Texas Accelerated Research Therapeutics (San Antonio, Tex.).
(§1) Primagraft experiments: For in vivo drug testing, ACC tumor fragments from host animals were implanted subcutaneously into the flank of nude mice (CRL: ATH/NU). Once tumors reached 125-250 mm3, mice were randomized to receive vehicle or drug diluted in 10:90 DMSO:10% hydroxypropyl-beta-cyclodextrin orally until controls reached a tumor volume endpoint of 1-2 cm3 (4-9 mice per group: x5M1 and x6, 4 treated vs. 9 vehicle controls; x9, 4 treated vs. 5 vehicle controls; x11, 5 treated vs. 8 vehicle controls). Mice were treated with ATRA (ACC x6 and x11: 4 mg/mL, 0.2 mL flat dose; ACC×9: 3 mg/mL, 0.2 mL flat dose) or isotretinoin (30 mg/mL, 0.2 mL flat dose). Tumor growth was monitored and mice weighed twice weekly and studies ended when final group reached tumor volume endpoint. No statistical methods were employed to determine the sample size, and no blinding of investigators was performed. […]

c-myb = test: U937 time course qPCR of c-myb; type: cell-based, human; conditions: for myb levels in U937 by qPCR: 1 μM, 6, 24 and 48 hours
Procedure: Cell culture: U937 cells were grown in RPMI 1640 (Life Technologies), 10% heat inactivated FBS, and 1% Penicillin-Streptomycin (Invitrogen). CellTiter-Glo Luminescent Cell Viability Assay (Promega) was performed as per manufacturer's instructions. Cell viability was assessed at day 2.
Quantitative PCR: Total RNA from cells was extracted using Qiagen RNeasy Mini Kit, and random primed cDNA was generated (Invitrogen, SuperScript III First-Strand Synthesis System). The SsoFast EvaGreen (Biorad) method was used to quantify cDNAs of interest, which are represented as the fold change in transcript level. The amount of cDNA starting material for each sample was normalized in relation to species-specific β-actin expression for zebrafish samples, and both gapdh and β-actin expression for human samples. The primer sequences used were zebrafish myb: forward, 5′-[…]-3′ (SEQ ID No:1), reverse, 5′-[…]-3′ (SEQ ID No:2); zebrafish β-actin: forward, 5′-[…]-3′ (SEQ ID No:3), reverse, 5′-[…]-3′ (SEQ ID No:4); human myb: forward, 5′-[…]-3′ (SEQ ID No:5), reverse, 5′-[…]-3′ (SEQ ID No:6); human gapdh: forward, 5′-[…]-3′ (SEQ ID No:7), reverse, 5′-[…]-3′ (SEQ ID No:8); human β-actin: forward, 5′-[…]-3′ (SEQ ID No:9), reverse, 5′-[…]-3′ (SEQ ID No:10).
U937 time course quantitative PCR analysis: U937 cells were plated with 1 μM retinoic acid agonists for the duration indicated. Cells were then collected and RNA was isolated using the RNeasy Plus Mini Kit (Qiagen) as per the manufacturer's instructions. Further processing was done as described in the section above. Samples were normalized to β-actin gene. Human primers used (forward and reverse respectively): actin, 5′-[…]-3′ (SEQ ID No:9) and 5′-[…]-3′ (SEQ ID No:10); c-myb, 5′-[…]-3′ (SEQ ID No:5) and 5′-[…]-3′ (SEQ ID No:6).

Ki-67 = test: Immunohistochemistry of ACC primagrafts, Ki-67; type: in vivo, nude mice; conditions: ACC x6, x9, x11 primagrafts at conclusion of long-term studies
Text: as §1
Immunohistochemistry: Sectioning and staining was carried out by the Dana-Farber/Harvard Cancer Center Specialized Histopathology Core using standard procedures on ACC x6, x9, and x11 samples (from long-term tumor growth inhibition studies). […] Primary antibody was detected using Bond Polymer Refine Detection kit. […] Images (>200 nuclei each) from three different individual primagrafts were blindly quantitated.

MYB = test: ChIP-seq of short-term ACC x9 primagrafts, MYB binding; type: in vivo, human; conditions: 3 days
Text: as §1
All ChIP-Seq datasets were aligned to UCSC build version hg19 of the human genome using Bowtie2 (version 2.2.1) with the following parameters: -end-to-end, —NO, -L20. […] ChIP-seq enrichment was determined as described previously in a 5 kb region (as counts per million) centered on the enriched peak regions (n=1,868) of the given MYB datasets. […]

Row | SMILES | tumor growth inhibition ACCx9 (ACCx9) | myb levels in U937 by qPCR (c-myb) | proliferation (Ki-67 positive nuclei) (Ki-67) | time to downregulation of c-myb expression (c-myb; U937 cells, 1 μM ATRA) | enrichment among MYB-bound regions genome-wide (MYB) | myb levels in U937 by qPCR (c-myb; listed as RA p-hydroxyanilide)
1 | CC1=C(/C=C/C(C)=C/C=C/C(C)=C\C(=O)O)C(C)(C)CCC1 [Isotretinoin, 13-cis-retinoic acid] | 95% | significantly downregulate; also recorded: reduction |  |  |  | 
2 | CC(C=CC1=C(C)CCCC1(C)C)=CC=C/C(C)=C/C(=O)O [ATRA, (E)-3,7-dimethyl-9-(2,6,6-trimethyl-1-cyclo-hexen-1-yl)-2,4,6,8-nonatetraenoic acid] | 78% | significantly downregulate; also recorded: reduction | no significant effect | ≤ 3 h | reduced enrichment | 
3 | CC1=C(/C=C/C(C)=C/C=C/C(C)=C/C(=O)Nc2ccc(O)cc2)C(C)(C)CCC1 [Fenretinide, retinoic acid p-hydroxyanilide] | 57% | reduction |  |  |  | significantly downregulate
